Bridge positions count the residues as written; N and C are the ends. Square brackets hold non-standard residues; d marks the D form. Peptide text beside a SMILES is read from it. Trp(6-Cl) = N[C@@H](Cc1c[nH]c2cc(Cl)ccc12)C(=O)O; R8 = C=CCCCCCC[C@@](C)(N)C(=O)O; hLeu = CC(C)CC[C@H](N)C(=O)O; S5 = C=CCCC[C@](C)(N)C(=O)O
What was measured:
[1] = system: RKO; assay: Cell viability assay (MTT), RKO; settings: read-out: RKO EC50 (72 h)
[2] = system: Caspase 3; assay: Caspase 3 detection assay in SJSA1 cells; type: cell-based; settings: SJSA1, 48 h, Caspase 3 activation over DMSO-treated cells
[3] = system: SJSA-1 cells; assay: Cell lysis by peptidomimetic macrocycles (LDH release); type: cell-based; settings: SJSA-1, 1 h
In short: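 SJSA-1 cells plated the day before, switched to RPMI with 1% FBS, then exposed 1 h at 37 °C to macrocycle at final 50 μM to 6.25 μM in 0.5% DMSO. LDH released into the supernatant was measured by kit. Controls: 0.5% DMSO (non-lytic), 10 μM melittin and 1% Triton X-100 (lytic).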

SMILES	EC50 [1] [µM]	caspase 0.3 μM [2]	caspase 1 μM [2]	caspase 3 μM [2]	caspase 10 μM [2]	caspase 30 μM [2]	6.25 μM % Lysed cells (1 h LDH) [3] [%]	25 μM % Lysed cells (1 h LDH) [3] [%]	50 μM % Lysed cells (1 h LDH) [3] [%]
CC(=O)N[C@@H](CC(C)C)C(=O)N[C@H](C(=O)N[C@@H](Cc1ccccc1)C(=O)N[C@]1(C)CCCCCCC=CCCC[C@@](C)(C(=O)N[C@@H](C)C(=O)N[C@@H](C)C(=O)N[C@@H](C)C(=O)N[C@@H](C)C(=O)N[C@@H](C)C(=O)N[C@H](C)C(N)=O)NC(=O)[C@H](CC(C)C)NC(=O)[C@H](CCC(N)=O)NC(=O)[C@H](C)NC(=O)[C@H](Cc2c[nH]c3cc(Cl)ccc23)NC(=O)[C@H](Cc2ccc(O)cc2)NC(=O)[C@H](C)NC1=O)[C@@H](C)O (single isomer, unassigned) [compound 338]	< 5	1	5	23	20	29	0	0	1
CC(=O)N[C@@H](CCC(=O)O)C(=O)N[C@H](C(=O)N[C@@H](Cc1ccccc1)C(=O)N[C@]1(C)CCCCCCC=CCCC[C@@](C)(C(=O)N[C@@H](C)C(=O)N[C@@H](C)C(=O)N[C@@H](C)C(=O)N[C@@H](C)C(=O)N[C@@H](C)C(=O)N[C@H](C)C(N)=O)NC(=O)[C@H](CC(C)C)NC(=O)[C@H](CCC(N)=O)NC(=O)[C@H](C)NC(=O)[C@H](Cc2c[nH]c3ccccc23)NC(=O)[C@H](Cc2ccc(O)cc2)NC(=O)[C@H](CCC(=O)O)NC1=O)[C@@H](C)O (single isomer, unassigned) [compound 341]	15 to 30	3	8	11	14	21	0	0	0
CC(=O)N[C@@H](CC(C)C)C(=O)N[C@H](C(=O)N[C@@H](Cc1ccccc1)C(=O)N[C@]1(C)CCCCCCC=CCCC[C@@](C)(C(=O)N[C@@H](CO)C(=O)N[C@@H](C)C(=O)N[C@@H](C)C(=O)N[C@H](C)C(N)=O)NC(=O)[C@H](CC2CCC2)NC(=O)[C@H](CCC(N)=O)NC(=O)[C@H](C)NC(=O)[C@H](Cc2c[nH]c3ccccc23)NC(=O)[C@H](Cc2ccc(O)cc2)NC(=O)[C@H](CCC(=O)O)NC1=O)[C@@H](C)O (single isomer, unassigned) [compound 353]	15 to 30	1	2	5	7	30	0	0	0
CC(=O)N[C@@H](C)C(=O)N[C@@H](CC(C)C)C(=O)N[C@H](C(=O)N[C@@H](Cc1ccccc1)C(=O)N[C@]1(C)CCCCCCC=CCCC[C@@](C)(C(=O)N[C@@H](CO)C(=O)N[C@@H](C)C(=O)N[C@@H](C)C(=O)N[C@H](C)C(N)=O)NC(=O)[C@H](CC2CCC2)NC(=O)[C@H](CCC(N)=O)NC(=O)[C@H](C)NC(=O)[C@H](Cc2c[nH]c3ccccc23)NC(=O)[C@H](Cc2ccc(O)cc2)NC(=O)[C@H](CCC(=O)O)NC1=O)[C@@H](C)O (single isomer, unassigned) [compound 355]	15 to 30	1	4	11	13	30	0	0	0
CC(=O)N[C@@H](C)C(=O)N[C@@H](CC(C)C)C(=O)N[C@H](C(=O)N[C@@H](Cc1ccccc1)C(=O)N[C@]1(C)CCCCCCC=CCCC[C@@](C)(C(=O)N[C@@H](CO)C(=O)N[C@@H](C)C(=O)N[C@@H](C)C(=O)N[C@@H](C)C(=O)N[C@H](C)C(N)=O)NC(=O)[C@H](CC2CCC2)NC(=O)[C@H](CCC(N)=O)NC(=O)[C@H](C)NC(=O)[C@H](Cc2c[nH]c3ccccc23)NC(=O)[C@H](Cc2ccc(O)cc2)NC(=O)[C@H](CCC(=O)O)NC1=O)[C@@H](C)O (single isomer, unassigned) [compound 357]	< 5	2	7	11	15	23	0	0	0
CC(=O)N[C@@H](C)C(=O)N[C@@H](C)C(=O)N[C@@H](CC(C)C)C(=O)N[C@H](C(=O)N[C@@H](Cc1ccccc1)C(=O)N[C@]1(C)CCCCCCC=CCCC[C@@](C)(C(=O)N[C@@H](CO)C(=O)N[C@@H](C)C(=O)N[C@@H](C)C(=O)N[C@@H](C)C(=O)N[C@H](C)C(N)=O)NC(=O)[C@H](CC2CCC2)NC(=O)[C@H](CCC(N)=O)NC(=O)[C@H](C)NC(=O)[C@H](Cc2c[nH]c3ccccc23)NC(=O)[C@H](Cc2ccc(O)cc2)NC(=O)[C@H](CCC(=O)O)NC1=O)[C@@H](C)O (single isomer, unassigned) [compound 359]	15 to 30	3	9	11	13	23	0	0	0
CC(=O)N[C@@H](CC(C)C)C(=O)N[C@H](C(=O)N[C@@H](Cc1ccccc1)C(=O)N[C@]1(C)CCCCCCC=CCCC[C@@](C)(C(=O)N[C@@H](CO)C(=O)N[C@@H](C)C(=O)N[C@@H](CC(C)C)C(N)=O)NC(=O)[C@H](CC(C)C)NC(=O)[C@H](CCC(N)=O)NC(=O)[C@H](C)NC(=O)[C@H](Cc2c[nH]c3ccccc23)NC(=O)[C@H](Cc2ccc(O)cc2)NC(=O)[C@H](C)NC1=O)[C@@H](C)O [compound 4] (Ac-LTF[R8]AYWAQL[S5]SAL-NH2; staple 4-11)	< 5	–	–	9	37	35	−2	1	2
CC(=O)N[C@@H](CC(C)C)C(=O)N[C@H](C(=O)N[C@@H](Cc1ccccc1)C(=O)N[C@]1(C)CCCCCC/C=C/CCC[C@@](C)(C(=O)N[C@@H](CO)C(=O)N[C@@H](C)C(=O)N[C@@H](C)C(N)=O)NC(=O)[C@H](CC(C)C)NC(=O)[C@H](CCC(N)=O)NC(=O)[C@H](C)NC(=O)[C@H](Cc2c[nH]c3cc(Cl)ccc23)NC(=O)[C@H](Cc2ccc(O)cc2)NC(=O)[C@H](C)NC1=O)[C@@H](C)O [compound 99] (Ac-LTF[R8]AY[Trp(6-Cl)]AQL[S5]SAA-NH2; staple (E) 4-11)	< 5	1	–	7	31	33	1.5	2	3.5
CC(=O)N[C@@H](CC(C)C)C(=O)N[C@H](C(=O)N[C@@H](Cc1ccccc1)C(=O)N[C@]1(C)CCCCCC/C=C\CCC[C@@](C)(C(=O)N[C@@H](CO)C(=O)N[C@@H](C)C(=O)N[C@@H](C)C(N)=O)NC(=O)[C@H](CCC(C)C)NC(=O)[C@H](CCC(N)=O)NC(=O)[C@H](C)NC(=O)[C@H](Cc2c[nH]c3ccccc23)NC(=O)[C@H](Cc2ccc(O)cc2)NC(=O)[C@H](C)NC1=O)[C@@H](C)O [compound 114] (Ac-LTF[R8]AYWAQ[hLeu][S5]SAA-NH2; staple (Z) 4-11)	5 to 15	1	–	6	28	34	3	4	9
CC(=O)N[C@@H](CC(C)C)C(=O)N[C@H](C(=O)N[C@@H](Cc1ccccc1)C(=O)N[C@]1(C)CCCCCC/C=C/CCC[C@@](C)(C(=O)N[C@@H](CO)C(=O)N[C@@H](C)C(=O)N[C@@H](C)C(N)=O)NC(=O)[C@H](CCC(C)C)NC(=O)[C@H](CCC(N)=O)NC(=O)[C@H](C)NC(=O)[C@H](Cc2c[nH]c3ccccc23)NC(=O)[C@H](Cc2ccc(O)cc2)NC(=O)[C@H](C)NC1=O)[C@@H](C)O [compound 115] (Ac-LTF[R8]AYWAQ[hLeu][S5]SAA-NH2; staple (E) 4-11)	5 to 15	1	–	10	26	32	0	−1	6
CC(=O)N[C@@H](CC(C)C)C(=O)N[C@H](C(=O)N[C@@H](Cc1ccccc1)C(=O)N[C@]1(C)CCCCCCC=CCCC[C@@](C)(C(=O)N[C@@H](CO)C(=O)N[C@H](C(=O)N[C@@H](CO)C(N)=O)C(C)C)NC(=O)[C@H](CC(C)C)NC(=O)[C@H](CCC(N)=O)NC(=O)[C@H](C)NC(=O)[C@H](Cc2c[nH]c3ccccc23)NC(=O)[C@H](Cc2ccc(O)cc2)NC(=O)[C@H](C)NC1=O)[C@@H](C)O [compound 121] (Ac-LTF[R8]AYWAQL[S5]SVS-NH2; staple 4-11)	< 5	1	–	5	19	30	1	1	7
